According to ChEMBL document CHEMBL2074268, “Cloning of mouse prostaglandin transporter PGT cDNA: species-specific substrate affinities” (Am J Physiol, 1999):

How the values were obtained:
Assay type in all cases: functional, cell-based
[1] = target: Solute carrier organic anion transporter family member 2A1 (Mus musculus, UniProt Q9EPT5); assay: (§1) TP_TRANSPORTER: inhibition of PGE2 uptake in PGT-expressing HeLa cells
[2] = target: Solute carrier organic anion transporter family member 2A1 (Rattus norvegicus, UniProt Q00910); assay: as §1
[3] = target: Solute carrier organic anion transporter family member 2A1 (Homo sapiens, UniProt Q92959); assay: as §1

Chain of Solute carrier organic anion transporter family member 2A1 (Mus musculus, UniProt Q9EPT5) (Q9EPT5 whole entry): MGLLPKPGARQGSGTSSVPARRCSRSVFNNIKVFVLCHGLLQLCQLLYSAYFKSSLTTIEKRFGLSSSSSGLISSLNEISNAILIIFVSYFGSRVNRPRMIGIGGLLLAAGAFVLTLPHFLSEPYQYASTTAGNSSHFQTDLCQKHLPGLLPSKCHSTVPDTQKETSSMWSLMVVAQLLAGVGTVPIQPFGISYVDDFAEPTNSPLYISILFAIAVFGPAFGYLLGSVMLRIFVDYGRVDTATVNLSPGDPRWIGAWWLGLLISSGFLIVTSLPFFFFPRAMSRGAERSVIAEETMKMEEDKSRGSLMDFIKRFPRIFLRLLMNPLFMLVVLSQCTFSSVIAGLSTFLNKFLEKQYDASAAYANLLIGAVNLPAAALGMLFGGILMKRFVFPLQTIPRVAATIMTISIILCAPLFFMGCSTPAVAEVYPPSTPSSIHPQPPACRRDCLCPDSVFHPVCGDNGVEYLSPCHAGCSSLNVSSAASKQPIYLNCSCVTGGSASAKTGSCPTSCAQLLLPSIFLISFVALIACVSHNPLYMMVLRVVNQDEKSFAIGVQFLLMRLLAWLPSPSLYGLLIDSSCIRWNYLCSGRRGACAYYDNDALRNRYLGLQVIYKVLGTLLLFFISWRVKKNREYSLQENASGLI

Ki [1]	Ki [2]	Ki [3]	Compound
104 nM	45 nM	23 nM	CCCCC[C@H](O)/C=C/[C@@H]1[C@@H](C/C=C\CCCC(=O)O)[C@@H](O)C[C@H]1O [DINOPROST]
98 nM	45 nM	38 nM	CCCCC[C@H](O)/C=C/[C@H]1C(=O)C[C@H](O)[C@@H]1C/C=C\CCCC(=O)O [PROSTAGLANDIN D2]
